One data set relates to Plasma. Kind of data set: Drug recovery in Rattus norvegicus (rat) plasma at 50 ng/ml by LLE method. The class given is ADME, cell-free.
Data set [1] in a line: Stability of the compound in Rattus norvegicus (rat) plasma at 62.5 ng/ml after 2 months at -80 degC. The note with it: read-out: Stability. The data set is classed as ADME, cell-free.
Data set [2] in a line: Stability of the compound in Rattus norvegicus (rat) plasma at 1000 ng/ml after three 24 hr cycles of freeze-thaw on storing at -80 degC. The class given is ADME, cell-free. The note with it: read-out: Stability.
Data set [3] in a line: Stability of the compound in Rattus norvegicus (rat) plasma at 62.5 ng/ml after three 24 hr cycles of freeze-thaw on storing at -80 degC. The data set is classed as ADME, cell-free. The note with it: read-out: Stability.
Data set [4] in a line: Stability of the compound in Rattus norvegicus (rat) plasma at 7.8 ng/ml after 2 months at -80 degC. The class given is ADME, cell-free. The note with it: read-out: Stability.
The nature of data set [5]: Stability of the compound in Rattus norvegicus (rat) plasma at 7.8 ng/ml after three 24 hr cycles of freeze-thaw on storing at -80 degC. The class given is ADME, cell-free. The note with it: read-out: Stability.
Data set [6] in a line: Stability of the compound in Rattus norvegicus (rat) plasma at 1000 ng/ml after 2 months at -80 degC. The class given is ADME, cell-free. The note with it: read-out: Stability.
Data set [7] can be described thus: Cmax in Rattus norvegicus Sprague-Dawley (rat) at 10 mg/kg, po. The class given is ADME, organism-based. Set-up: dose 10 mg/kg, route oral. The note with it: in vivo.
Data set [8] is described as follows: Half life in Rattus norvegicus Sprague-Dawley (rat) at 10 mg/kg, po. The class given is ADME, organism-based. Details: dose 10 mg/kg, route oral. The note with it: in vivo.
Data set [9] is described as follows: Mean residence time in Rattus norvegicus Sprague-Dawley (rat) at 10 mg/kg, po. The class given is ADME, organism-based. Set-up: dose 10 mg/kg, route oral. The note with it: in vivo.
Data set [10] can be described thus: AUC (0 to alpha) in Rattus norvegicus Sprague-Dawley (rat) at 10 mg/kg, po. The note with it: plasma. The data set is classed as ADME, organism-based. Details: dose 10 mg/kg, route oral.
Data set [11] in a line: Tmax in Rattus norvegicus Sprague-Dawley (rat) at 10 mg/kg, po. Set-up: dose 10 mg/kg, route oral. The note with it: in vivo. The class given is ADME, organism-based.

Take `O=c1c(-c2ccccc2)coc2cc(O)ccc12` [7-HYDROXY ISOFLAVONE]: in the data set with Plasma, the Drug recovery is reported as 85.3%.
Take `Oc1ccc([C@H]2COc3cc(O)ccc3C2)cc1` [AUS-131]: the remaining at 1461 h, 62.5 ng/ml in data set [1] was 103%. The remaining at 24 h, 1000 ng/ml in [2] worked out at 91.8%. Also, in data set [3], the remaining at 24 h, 62.5 ng/ml was found to be 94.6%. In the data set on Plasma, this compound registered a Drug recovery of 76.5%. The remaining at 1461 h, 7.8 ng/ml in [4] worked out at 100%. Also, in data set [5], the remaining at 24 h, 7.8 ng/ml is 93.9%. The remaining at 1461 h, 1000 ng/ml in data set [6] worked out at 95.6%.
As usually defined, the Cmax is the peak of the concentration-time curve. A word on the half-life: it is how long it takes for the measured level to halve. Read a high half-life as slow loss. Usually MRT stands for a mean duration of stay, worked out from the concentration-time curve. As usually defined, the AUC is concentration integrated over time. A low value points to less exposure. In general, Tmax refers to the time from dosing to the highest level. `COc1ccc(-c2coc3cc(O)ccc3c2=O)cc1OC` [CLADRIN] yielded a peak concentration (Cmax) in [7] of 44.8 ng/mL. The remaining at 1461 h, 62.5 ng/ml in data set [1] is 84.5%. Besides, the remaining at 24 h, 1000 ng/ml in data set [2] worked out at 88.2%. Besides, in data set [3], the remaining at 24 h, 62.5 ng/ml came to 98.5%. Further, in the data set on Plasma, the Drug recovery came out at 83.5%. The remaining at 1461 h, 7.8 ng/ml in [4] came to 106%. This compound showed a half-life in data set [8] of 246 min. Moreover, in data set [5], the remaining at 24 h, 7.8 ng/ml is 93.6%. The MRT in data set [9] is 10.8 h. For the same compound, the remaining at 1461 h, 1000 ng/ml in data set [6] was determined as 81.4%. Moreover, in data set [10], the AUC is 609 ng·h/mL. Moreover, the Tmax in data set [11] turned out to be 30 min.

The values are drawn from ChEMBL document CHEMBL3045906, “LCMS/MS method for simultaneous analysis of cladrin and equol in rat plasma and its application in pharmacokinetics study of cladrin” (Med Chem Res, 2011).
